The structures appear in SMILES notation.

For this assay, the target named is Cdk9/cyclinT1 (Homo sapiens, UniProt P50750). Kind of assay: Cdk9/cyclinT1 kinase assay (IMAP or Alpha Screen protocol).
Chain of Cdk9/cyclinT1 (P50750 whole entry): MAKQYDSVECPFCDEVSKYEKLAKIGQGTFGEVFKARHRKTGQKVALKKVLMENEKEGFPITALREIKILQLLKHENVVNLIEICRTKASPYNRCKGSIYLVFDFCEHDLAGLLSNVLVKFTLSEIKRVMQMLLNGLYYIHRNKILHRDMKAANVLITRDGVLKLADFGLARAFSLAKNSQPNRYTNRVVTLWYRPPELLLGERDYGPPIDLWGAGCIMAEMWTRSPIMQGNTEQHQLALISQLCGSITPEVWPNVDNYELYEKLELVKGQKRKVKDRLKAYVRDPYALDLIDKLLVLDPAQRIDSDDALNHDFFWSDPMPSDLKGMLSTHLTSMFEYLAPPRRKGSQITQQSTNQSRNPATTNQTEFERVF
Chain of Cdk9/cyclinT1 (O60563 whole entry partner): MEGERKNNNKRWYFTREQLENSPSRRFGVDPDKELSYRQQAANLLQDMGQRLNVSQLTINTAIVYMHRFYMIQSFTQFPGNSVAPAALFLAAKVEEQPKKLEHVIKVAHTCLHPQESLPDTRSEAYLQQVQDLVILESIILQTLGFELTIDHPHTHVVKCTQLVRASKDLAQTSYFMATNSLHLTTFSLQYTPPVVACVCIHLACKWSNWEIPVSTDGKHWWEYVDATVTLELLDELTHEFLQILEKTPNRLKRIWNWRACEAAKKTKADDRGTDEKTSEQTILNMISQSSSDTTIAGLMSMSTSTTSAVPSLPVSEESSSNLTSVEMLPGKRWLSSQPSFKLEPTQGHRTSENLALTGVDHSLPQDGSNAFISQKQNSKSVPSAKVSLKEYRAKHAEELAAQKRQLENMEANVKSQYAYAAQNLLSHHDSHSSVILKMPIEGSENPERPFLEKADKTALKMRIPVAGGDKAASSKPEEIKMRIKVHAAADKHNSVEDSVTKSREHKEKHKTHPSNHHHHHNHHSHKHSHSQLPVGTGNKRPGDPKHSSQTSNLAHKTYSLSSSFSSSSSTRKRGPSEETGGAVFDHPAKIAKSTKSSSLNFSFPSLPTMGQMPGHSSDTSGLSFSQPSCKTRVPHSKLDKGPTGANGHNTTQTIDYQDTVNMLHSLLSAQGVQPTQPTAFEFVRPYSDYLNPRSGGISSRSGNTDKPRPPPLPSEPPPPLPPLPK
Excerpt: Cdk9/cyclinT1 IMAP Protocol
Fluorescence polarization (FP) is used for detection.
Cdk9/cyclinT1 Alpha Screen Protocol
The compound `O=C(Nc1cc(-c2cncc(NCC3CCCCO3)n2)c(Cl)cn1)[C@@H]1CCCNC1` (stereo partly drawn) [Example 34, (R)-Piperidine-3-carboxylic acid (5-chloro-4-{6-[(tetrahydro-pyran-2-ylmethyl)-amino]-pyrazin-2-yl}-pyridin-2-yl)-amide] came in with a half-maximal inhibitory concentration (IC50) of 11 nM.
Then `COCCNc1cncc(-c2cc(NC(=O)[C@@H]3CCCNC3)ncc2Cl)n1` [Example 35, (R)-Piperidine-3-carboxylic acid {5-chloro-4-[6-(2-methoxy-ethylamino)-pyrazin-2-yl]-pyridin-2-yl}-amide], with 47 nM; and `C[C@H](Nc1cncc(-c2cc(NC(=O)[C@@H]3CCCNC3)ncc2Cl)n1)C1CCCCC1` [Example 36, (R)-Piperidine-3-carboxylic acid {5-chloro-4-[6-((S)-1-cyclohexyl-ethylamino)-pyrazin-2-yl]-pyridin-2-yl}-amide], with < 8 nM.
Take `C[C@@H](Nc1cncc(-c2cc(NC(=O)[C@@H]3CCCNC3)ncc2Cl)n1)C1CCCCC1` [Example 37, (R)-Piperidine-3-carboxylic acid {5-chloro-4-[6-((R)-1-cyclohexyl-ethylamino)-pyrazin-2-yl]-pyridin-2-yl}-amide]: the IC50 is < 8 nM.
Take `O=C(Nc1cc(-c2cncc(Cl)n2)c(Cl)cn1)[C@@H]1CCCNC1` [Example 38, (R)-Piperidine-3-carboxylic acid [5-chloro-4-(6-chloro-pyrazin-2-yl)-pyridin-2-yl]-amide]: the midpoint of inhibition, the IC50, lay at 1400 nM.
Compound `O=C(Nc1cc(-c2cncc(NCC3CC3)n2)c(Cl)cn1)[C@@H]1CCCNC1` [Example 39, (R)-Piperidine-3-carboxylic acid {5-chloro-4-[6-(cyclopropylmethyl-amino)-pyrazin-2-yl]-pyridin-2-yl}-amide] gave an IC50 of 17 nM. This IC50 is about 82-fold lower than that of the compound before.
Take `O=C(Nc1cc(-c2cncc(NCC3CCOCC3)n2)c(Cl)cn1)[C@@H]1CCCN1` [Example 40, (S)-Pyrrolidine-2-carboxylic acid (5-chloro-4-{6-[(tetrahydro-pyran-4-ylmethyl)-amino]-pyrazin-2-yl}-pyridin-2-yl)-amide]: the IC50 turned out to be 37 nM.
Next, `O=C(Nc1cc(-c2cncc(NCC3CCOCC3)n2)c(Cl)cn1)[C@@H]1CCNC1` [Example 41, (R)-Pyrrolidine-3-carboxylic acid (5-chloro-4-{6-[(tetrahydro-pyran-4-ylmethyl)-amino]-pyrazin-2-yl}-pyridin-2-yl)-amide]: < 8 nM.
Next, `N[C@@H]1CC[C@H](C(=O)Nc2cc(-c3cncc(NCC4CCOCC4)n3)c(Cl)cn2)C1` [Example 42, (1S,3R)-3-Amino-cyclopentanecarboxylic acid (5-chloro-4-{6-[(tetrahydro-pyran-4-ylmethyl)-amino]-pyrazin-2-yl}-pyridin-2-yl)-amide]: 25 nM; `N[C@H]1CC[C@@H](C(=O)Nc2cc(-c3cncc(NCC4CCOCC4)n3)c(Cl)cn2)C1` [Example 43, (1R,3S)-3-Amino-cyclopentanecarboxylic acid (5-chloro-4-{6-[(tetrahydro-pyran-4-ylmethyl)-amino]-pyrazin-2-yl}-pyridin-2-yl)-amide]: < 8 nM.
As to `N[C@@H]1CC[C@@H](C(=O)Nc2cc(-c3cncc(NCC4CCOCC4)n3)c(Cl)cn2)C1` [Example 44, (1R,3R)-3-Amino-cyclopentanecarboxylic acid (5-chloro-4-{6-[(tetrahydro-pyran-4-ylmethyl)-amino]-pyrazin-2-yl}-pyridin-2-yl)-amide], the 50% inhibitory concentration (IC50) was < 8 nM.
Take `CCS(=O)(=O)N1CCC[C@H](C(=O)Nc2cc(-c3cncc(NCC4CCOCC4)n3)c(Cl)cn2)C1` [Example 45, (S)-1-Ethanesulfonyl-piperidine-3-carboxylic acid (5-chloro-4-{6-[(tetrahydro-pyran-4-ylmethyl)-amino]-pyrazin-2-yl}-pyridin-2-yl)-amide]: the concentration for half-maximal inhibition (IC50) is < 8 nM.
Consider `CC(C)OC(=O)N1CCC[C@H](C(=O)Nc2cc(-c3cncc(NCC4CCOCC4)n3)c(Cl)cn2)C1` [Example 46, (S)-3-(5-Chloro-4-{6-[(tetrahydro-pyran-4-ylmethyl)-amino]-pyrazin-2-yl}-pyridin-2-ylcarbamoyl)-piperidine-1-carboxylic acid isopropyl ester], for which the IC50 was < 8 nM.
Next, `COCC(=O)N1CCC[C@H](C(=O)Nc2cc(-c3cncc(NCC4CCOCC4)n3)c(Cl)cn2)C1` [Example 47, (S)-1-(2-Methoxy-acetyl)-piperidine-3-carboxylic acid (5-chloro-4-{6-[(tetrahydro-pyran-4-ylmethyl)-amino]-pyrazin-2-yl}-pyridin-2-yl)-amide]: < 8 nM; `CC(=O)N1CCC[C@H](C(=O)Nc2cc(-c3cncc(NCC4CCOCC4)n3)c(Cl)cn2)C1` [Example 48, (S)-1-Acetyl-piperidine-3-carboxylic acid (5-chloro-4-{6-[(tetrahydro-pyran-4-ylmethyl)-amino]-pyrazin-2-yl}-pyridin-2-yl)-amide]: < 8 nM; `COC(=O)N1CCC[C@H](C(=O)Nc2cc(-c3cncc(NCC4CCOCC4)n3)c(Cl)cn2)C1` [Example 49, (S)-3-(5-Chloro-4-{6-[(tetrahydro-pyran-4-ylmethyl)-amino]-pyrazin-2-yl}-pyridin-2-ylcarbamoyl)-piperidine-1-carboxylic acid methyl ester]: < 8 nM.
Next, `CS(=O)(=O)N[C@@H]1CC[C@H](C(=O)Nc2cc(-c3cncc(NCC4CCOCC4)n3)c(Cl)cn2)C1` [Example 50, (1S,3R)-3-Methanesulfonylamino-cyclopentanecarboxylic acid (5-chloro-4-{6-[(tetrahydro-pyran-4-ylmethyl)-amino]-pyrazin-2-yl}-pyridin-2-yl)-amide]: < 8 nM.
Turning to `CS(=O)(=O)N[C@H]1CC[C@@H](C(=O)Nc2cc(-c3cncc(NCC4CCOCC4)n3)c(Cl)cn2)C1` [Example 51, (1R,3S)-3-Methanesulfonylamino-cyclopentanecarboxylic acid (5-chloro-4-{6-[(tetrahydro-pyran-4-ylmethyl)-amino]-pyrazin-2-yl}-pyridin-2-yl)-amide], the 50% inhibitory concentration (IC50) was < 8 nM.
Next, `CS(=O)(=O)N[C@@H]1CC[C@@H](C(=O)Nc2cc(-c3cncc(NCC4CCOCC4)n3)c(Cl)cn2)C1` [Example 52, (1R,3R)-3-Methanesulfonylamino-cyclopentanecarboxylic acid (5-chloro-4-{6-[(tetrahydro-pyran-4-ylmethyl)-amino]-pyrazin-2-yl}-pyridin-2-yl)-amide]: < 8 nM; `COC(=O)N[C@@H]1CC[C@H](C(=O)Nc2cc(-c3cncc(NCC4CCOCC4)n3)c(Cl)cn2)C1` [Example 53, [(1R,3S)-3-(5-Chloro-4-{6-[(tetrahydro-pyran-4-ylmethyl)-amino]-pyrazin-2-yl}-pyridin-2-ylcarbamoyl)-cyclopentyl]-carbamic acid methyl ester]: < 8 nM; `COC(=O)N[C@H]1CC[C@@H](C(=O)Nc2cc(-c3cncc(NCC4CCOCC4)n3)c(Cl)cn2)C1` [Example 54, [(1S,3R)-3-(5-Chloro-4-{6-[(tetrahydro-pyran-4-ylmethyl)-amino]-pyrazin-2-yl}-pyridin-2-ylcarbamoyl)-cyclopentyl]-carbamic acid methyl ester]: < 8 nM.
Take `COC(=O)N[C@@H]1CC[C@@H](C(=O)Nc2cc(-c3cncc(NCC4CCOCC4)n3)c(Cl)cn2)C1` [Example 55, [(1R,3R)-3-(5-Chloro-4-{6-[(tetrahydro-pyran-4-ylmethyl)-amino]-pyrazin-2-yl}-pyridin-2-ylcarbamoyl)-cyclopentyl]-carbamic acid methyl ester]: the IC50 was < 8 nM.
Next, `CC(C)S(=O)(=O)N1CCC[C@H](C(=O)Nc2cc(-c3cncc(NCC4CCOCC4)n3)c(Cl)cn2)C1` [Example 56, (S)-1-(Propane-2-sulfonyl)-piperidine-3-carboxylic acid (5-chloro-4-{6-[(tetrahydro-pyran-4-ylmethyl)-amino]-pyrazin-2-yl}-pyridin-2-yl)-amide]: < 8 nM.
Consider `O=C(Cc1cccnc1)Nc1cc(-c2cncc(NCC3CCOCC3)n2)c(Cl)cn1` [Example 57, N-(5-Chloro-4-{6-[(tetrahydro-pyran-4-ylmethyl)-amino]-pyrazin-2-yl}-pyridin-2-yl)-2-pyridin-3-yl-acetamide], for which the 50% inhibitory concentration (IC50) was < 8 nM.
Then `CC(C)C(=O)Nc1cc(-c2cncc(NCC3CCOCC3)n2)c(C(F)(F)F)cn1` [Example 58, N-(4-{6-[(Tetrahydro-pyran-4-ylmethyl)-amino]-pyrazin-2-yl}-5-trifluoromethyl-pyridin-2-yl)-isobutyramide], with 146 nM; and `O=C(Nc1cc(-c2cncc(NCC3CCOCC3)n2)c(C(F)(F)F)cn1)C1CCOCC1` [Example 59, Tetrahydro-pyran-4-carboxylic acid (4-{6-[(tetrahydro-pyran-4-ylmethyl)-amino]-pyrazin-2-yl}-5-trifluoromethyl-pyridin-2-yl)-amide], with 1010 nM.
Next, `Cc1cnc(NC(=O)C(C)C)cc1-c1cncc(NCC2CCOCC2)n1` [Example 60, N-(5-Methyl-4-{6-[(tetrahydro-pyran-4-ylmethyl)-amino]-pyrazin-2-yl}-pyridin-2-yl)-isobutyramide]: 73 nM; `O=C(Nc1cc(-c2cncc(NCC3CCOCC3)n2)c(C(F)(F)F)cn1)[C@@H]1CCCNC1` [Example 61, (R)-Piperidine-3-carboxylic acid (4-{6-[(tetrahydro-pyran-4-ylmethyl)-amino]-pyrazin-2-yl}-5-trifluoromethyl-pyridin-2-yl)-amide]: 130 nM.
As for `N[C@H]1CC[C@@H](C(=O)Nc2cc(-c3cncc(NCC4CCOCC4)n3)c(C(F)(F)F)cn2)C1` [Example 62, (1R,3S)-3-Amino-cyclopentanecarboxylic acid (4-{6-[(tetrahydro-pyran-4-ylmethyl)-amino]-pyrazin-2-yl}-5-trifluoromethyl-pyridin-2-yl)-amide], the IC50 came to 40 nM.
Next, `O=C(Nc1cc(-c2cncc(N[C@@H]3CC34CCOCC4)n2)c(Cl)cn1)[C@@H]1CCCNC1` [Example 63, (R)-Piperidine-3-carboxylic acid (5-chloro-4-{6-[(R)-(6-oxa-spiro[2.5]oct-1-yl)amino]-pyrazin-2-yl}-pyridin-2-yl)-amide]: 47 nM.
